Experiments:
HCT-116 = experiment: Antiproliferative activity against human HCT116 cells after 48 hrs by MTT assay; format: functional, cell-based; details: HCT-116, 48 h
DU-145 = experiment: Antiproliferative activity against human DU145 cells after 48 hrs by MTT assay; format: functional, cell-based; details: DU-145, 48 h
[1] = 1-octanol/water partition coefficient, log P of the compound at 300 uM by UV-Vis spectrophotometric analysis; format: physicochemical
PC-3 = experiment: Antiproliferative activity against human PC3 cells after 48 hrs by MTT assay; format: functional, cell-based; details: PC-3, 48 h
HT-29 = experiment: Antiproliferative activity against human HT-29 cells after 48 hrs by MTT assay; format: functional, cell-based; details: HT-29, 48 h

Row | SMILES | IC50 (HCT-116) | IC50 (DU-145) | logP at 300 µM [1] | IC50 (PC-3) | IC50 (HT-29)
1 | COc1ccc(/C=C/C(=O)c2cc(OC)c(OC)c(OC)c2)cc1OCCCC(=O)NCCCCNCCCN | 38 µM | 99.3 µM | -1.28 | 51 µM | > 100 µM
2 | COc1ccc(/C=C/C(=O)c2cc(OC)c(OC)c(OC)c2)cc1OCCCC(=O)NCCCCN(CCCN)CCCCNCCCN | 29.5 µM | 84.9 µM |  | 48.1 µM | 89.1 µM
3 | COc1cc(C(=O)/C=C/c2ccc(OCCCC(=O)NCCCCN(CCCN)CCCCN)cc2)cc(OC)c1OC | 29.2 µM | 86.8 µM |  | 55.4 µM | 87.2 µM
4 | COc1ccc(/C=C/C(=O)c2cc(OC)c(OC)c(OC)c2)cc1OCCCC(=O)NCCCNCCCCNCCN | 55.8 µM | 28.5 µM | -1.57 | 31.8 µM | > 100 µM
5 | COc1cc(C(=O)/C=C/c2ccc(OCCCC(=O)NCCCNCCCCNCCN)cc2)cc(OC)c1OC | 33.8 µM | 35.4 µM | -1.98 | 34 µM | 98 µM
6 | COc1ccc(/C=C/C(=O)c2cc(OC)c(OC)c(OC)c2)cc1OCCCC(=O)NCCCCN(CCCN)CCCCN | 73.6 µM | 82.3 µM |  | 60.6 µM | 74.7 µM

More lines, now with the values ahead:

Row | IC50 (HCT-116) | IC50 (DU-145) | logP at 300 µM [1] | IC50 (PC-3) | IC50 (HT-29) | SMILES
7 | 0.85 µM | 6.3 µM | 2.99 | 0.09 µM | 23.1 µM | COc1ccc(/C=C/C(=O)c2cc(OC)c(OC)c(OC)c2)cc1O
8 | 10.7 µM | 13.8 µM | 3.1 | 7.8 µM | 7.4 µM | COc1ccc(/C=C/C(=O)c2cc(OC)c(OC)c(OC)c2)cc1
9 | > 100 µM | > 100 µM | -1.43 | > 100 µM | > 100 µM | COc1cc(C(=O)/C=C/c2ccc(OCCCC(=O)NCCCNCCCCN)cc2)cc(OC)c1OC
10 | > 100 µM | > 100 µM |  | 81 µM | > 100 µM | COc1ccc(/C=C/C(=O)c2cc(OC)c(OC)c(OC)c2)cc1OCCCC(=O)NCCCNCCCCN
11 | 75.4 µM | 92.5 µM |  | 81.6 µM | 91.7 µM | COc1cc(C(=O)/C=C/c2ccc(OCCCC(=O)NCCCCN(CCCN)CCCCNCCCN)cc2)cc(OC)c1OC
12 | 20 µM | 54.8 µM |  | 79.3 µM | > 100 µM | COc1cc(C(=O)/C=C/c2ccc(OCCCC(=O)NCCCCNCCCN)cc2)cc(OC)c1OC
